Legend:
[1] = test system: Paer 27853; assay: FISH detection of live and killed bacteria with or without protease digestion; format: cell-based, P. aeruginosa
[2] = test system: Ecol 35218; assay: as above; format: cell-based, E. coli
[3] = test system: Ecol 35218; assay: Plate count of live bacteria after killing treatment; format: cell-based, E. coli
[4] = test system: Saur 12600; assay: as above; format: cell-based, S. aureus
[5] = test system: Paer 27853; assay: as above; format: cell-based, P. aeruginosa
[6] = test system: Saur 12600; assay: FISH detection of live and killed bacteria with or without protease digestion; format: cell-based, S. aureus
[7] = test system: Kpne 13882; assay: Plate count of live bacteria after killing treatment
[8] = test system: Kpne 13882; assay: FISH detection of live and killed bacteria with or without protease digestion; format: cell-based, K. pneumoniae
[9] = test system: E. coli; assay: Protease-dependent bacterial growth inhibition in rapid blood culture (plating); format: cell-based; conditions: for Overall rate / Fold Growth: 6 hour run; for Fold Growth: over starting number
Method: Blood culture samples were treated with two different concentrations of protease to determine if protease used at a high concentration could produce inhibition of bacterial growth. Identification of a protease concentration dependent inhibitory effect on the growth rate of microbial cells is an important component of optimization of a rapid blood culture method. Growth of E. coli in simulated bacteremic blood cultures treated with a working protease concentration (0.2 mg/mL) and high protease concentration (20 mg/mL) was compared over a six (6) hour growth and digestion period.
A mock blood culture specimen was created by addition of 10 mL of blood to a BioMerieux BacT/Alert Standard Aerobic bottle. A 1.0 mL portion of this specimen was used for each condition. Each sample was treated with saponin to a final concentration of 4 mg/mL and SPS to a final concentration of 0.96 mg/mL. Samples were then spiked with E. coli bacteria to a final concentration of 1×10^2 cfu/mL. The samples were treated with a Pronase solution containing either 0.2 mg/mL or 20 mg/mL. Samples were incubated at 35° C. with agitation for 6 hours. A portion of each sample was removed for concentration determination at 2 hour time points during the incubation. The sampled bacteria were plated in 10-fold dilution series to determine the concentration of bacteria at each time point. Interval-by-interval growth rates, overall growth rate, and fold increase versus the starting concentration were determined using the calculated concentrations at each time point.

[10] = 1 hour, with protease (0.2 mg/mL Pronase)
[11] = 1 hour, with protease (0.2 mg/mL Pronase), cells live or pre-killed as labelled
[12] = 4 hour, with protease (0.2 mg/mL Pronase)
[13] = 4 hour, with protease (0.2 mg/mL Pronase), cells live or pre-killed as labelled
[14] = 0 hr, after gentamycin 100 micrograms per mL 1 hour or 80% ethanol
[15] = gentamycin 1 hour or 80% ethanol
[16] = High protease (20 mg/mL Pronase)
[17] = Low protease (0.2 mg/mL Pronase)

Compound: CCO [Ethanol, ethanol]
- FISH Conc ([1]; 1 hour, no protease): 3.0 × 10^5 cells/mL
- Positive Detection? ([1]; 1 hour, no protease): Yes (A detection threshold of 1×10^4 cells per mL was used as the threshold for a positive call in the FISH assay)
- Positive Detection? [1, 10]: No (A detection threshold of 1×10^4 cells per mL was used as the threshold for a positive call in the FISH assay)
- FISH Conc [1, 11]: 6.7 × 10^3 cells/mL
- FISH Conc ([1]; 4 hour, no protease): 1.3 × 10^5 cells/mL
- Positive Detection? ([1]; 4 hour, no protease): Yes (A detection threshold of 1×10^4 cells per mL was used as the threshold for a positive call in the FISH assay)
- Positive Detection? [1, 12]: No (A detection threshold of 1×10^4 cells per mL was used as the threshold for a positive call in the FISH assay)
- FISH Conc [1, 13]: <1 × 10^3 cells/mL
- FISH Conc ([2]; 1 hour, no protease): 4.3 × 10^4 cells/mL
- Positive Detection? ([2]; 1 hour, no protease): Yes (A detection threshold of 1×10^4 cells per mL was used as the threshold for a positive call in the FISH assay)
- Positive Detection? [2, 10]: No (A detection threshold of 1×10^4 cells per mL was used as the threshold for a positive call in the FISH assay)
- FISH Conc [2, 11]: 3.3 × 10^3 cells/mL
- FISH Conc ([2]; 4 hour, no protease): 3.7 × 10^4 cells/mL
- Positive Detection? ([2]; 4 hour, no protease): Yes (A detection threshold of 1×10^4 cells per mL was used as the threshold for a positive call in the FISH assay)
- Positive Detection? [2, 12]: No (A detection threshold of 1×10^4 cells per mL was used as the threshold for a positive call in the FISH assay)
- FISH Conc [2, 13]: 6.7 × 10^3 cells/mL
- Conc of live bacteria by plating [3, 14]: <10 cfu/mL
- Killing by plating, in words [3, 15]: no viable cells
- Conc of live bacteria by plating [4, 14]: <10 cfu/mL
- Killing by plating, in words [4, 15]: no viable cells
- Conc of live bacteria by plating [5, 14]: <10 cfu/mL
- Killing by plating, in words [5, 15]: no viable cells
- FISH Conc ([6]; 1 hour, no protease): 3.4 × 10^5 cells/mL
- Positive Detection? ([6]; 1 hour, no protease): Yes (A detection threshold of 1×10^4 cells per mL was used as the threshold for a positive call in the FISH assay)
- Positive Detection? [6, 10]: Yes (A detection threshold of 1×10^4 cells per mL was used as the threshold for a positive call in the FISH assay)
- FISH Conc [6, 11]: 2.5 × 10^5 cells/mL
- FISH Conc ([6]; 4 hour, no protease): 1.9 × 10^5 cells/mL
- Positive Detection? ([6]; 4 hour, no protease): Yes (A detection threshold of 1×10^4 cells per mL was used as the threshold for a positive call in the FISH assay)
- Positive Detection? [6, 12]: Yes (A detection threshold of 1×10^4 cells per mL was used as the threshold for a positive call in the FISH assay)
- FISH Conc [6, 13]: 1.2 × 10^5 cells/mL
- Conc of live bacteria by plating [7, 14]: <10 cfu/mL
- Killing by plating, in words [7, 15]: no viable cells
- FISH Conc ([8]; 1 hour, no protease): 4.9 × 10^5 cells/mL
- Positive Detection? ([8]; 1 hour, no protease): Yes (A detection threshold of 1×10^4 cells per mL was used as the threshold for a positive call in the FISH assay)
- Positive Detection? [8, 10]: Yes (A detection threshold of 1×10^4 cells per mL was used as the threshold for a positive call in the FISH assay)
- FISH Conc [8, 11]: 6.8 × 10^5 cells/mL
- FISH Conc ([8]; 4 hour, no protease): 4.1 × 10^5 cells/mL
- Positive Detection? ([8]; 4 hour, no protease): Yes (A detection threshold of 1×10^4 cells per mL was used as the threshold for a positive call in the FISH assay)
- Positive Detection? [8, 12]: Yes (A detection threshold of 1×10^4 cells per mL was used as the threshold for a positive call in the FISH assay)
- FISH Conc [8, 13]: 2.8 × 10^5 cells/mL

Compound: Pronase [Protease]
- lower overall increase with the higher concentration of protease ([9]; 20 mg/mL versus 0.2 mg/mL, 6 hour incubation): approximately 8.5 fold
- Calculated growth rate 0→2 Hours [9, 16]: 0.70
- Calculated growth rate 2→4 Hours [9, 16]: 2.74
- Calculated growth rate 4→6 Hours [9, 16]: 2.22
- Conc of bacteria ([9]; High protease (20 mg/mL Pronase), 2 hr): 2.7 × 10^2 cfu/mL
- Conc of bacteria ([9]; High protease (20 mg/mL Pronase), 4 hr): 1.2 × 10^4 cfu/mL
- Overall rate [9, 16]: 1.89
- Conc of bacteria ([9]; High protease (20 mg/mL Pronase), 6 hr): 2.6 × 10^5 cfu/mL
- Fold Growth [9, 16]: 2,600
- Calculated growth rate 0→2 Hours [9, 17]: 0.60
- Calculated growth rate 2→4 Hours [9, 17]: 2.96
- Calculated growth rate 4→6 Hours [9, 17]: 3.65
- Conc of bacteria ([9]; Low protease (0.2 mg/mL Pronase), 2 hr): 2.3 × 10^2 cfu/mL
- Conc of bacteria ([9]; Low protease (0.2 mg/mL Pronase), 4 hr): 1.4 × 10^4 cfu/mL
- Overall rate [9, 17]: 2.40
- Conc of bacteria ([9]; Low protease (0.2 mg/mL Pronase), 6 hr): 2.2 × 10^6 cfu/mL
- Fold Growth [9, 17]: 22,000
- Positive Detection? [1, 10]: Yes (A detection threshold of 1×10^4 cells per mL was used as the threshold for a positive call in the FISH assay)
- FISH Conc [1, 11]: 9.0 × 10^4 cells/mL
- Positive Detection? [1, 12]: Yes (A detection threshold of 1×10^4 cells per mL was used as the threshold for a positive call in the FISH assay)
- FISH Conc [1, 13]: 5.9 × 10^6 cells/mL
- Positive Detection? [2, 10]: Yes (A detection threshold of 1×10^4 cells per mL was used as the threshold for a positive call in the FISH assay)
- FISH Conc [2, 11]: 2.3 × 10^6 cells/mL
- Positive Detection? [2, 12]: Yes (A detection threshold of 1×10^4 cells per mL was used as the threshold for a positive call in the FISH assay)
- FISH Conc [2, 13]: 1.8 × 10^7 cells/mL
- Positive Detection? [6, 10]: Yes (A detection threshold of 1×10^4 cells per mL was used as the threshold for a positive call in the FISH assay)
- FISH Conc [6, 11]: 1.6 × 10^6 cells/mL
- Positive Detection? [6, 12]: Yes (A detection threshold of 1×10^4 cells per mL was used as the threshold for a positive call in the FISH assay)
- FISH Conc [6, 13]: 4.2 × 10^7 cells/mL
- Positive Detection? [8, 10]: Yes (A detection threshold of 1×10^4 cells per mL was used as the threshold for a positive call in the FISH assay)
- FISH Conc [8, 11]: 7.7 × 10^4 cells/mL
- Positive Detection? [8, 12]: Yes (A detection threshold of 1×10^4 cells per mL was used as the threshold for a positive call in the FISH assay)
- FISH Conc [8, 13]: 4.3 × 10^6 cells/mL
